What was measured:
[1] = test system: U937 cells; assay: Cellular assay in U937 cells to measure activity of RIPK1-inhibitors on cell death (necroptosis); format: cell-based; details: Homo sapiens, U-937, TNFα/zVAD.fmk induced cell death (necroptosis), overnight (18 to 24 hrs), 37° C., MTS readout
[2] = target: T1, hRIPK1 (aa 1-375) fusion protein (Homo sapiens, UniProt Q13546); assay: Receptor-Interacting Protein Kinase 1 inhibition, ADP Glo assay (conversion of ATP to ADP due to autophosphorylation); format: biochemical; details: ATP 50 μM, 30 min preincubation, 240 min incubation, room temperature, DMSO 1%
T1 construct: hRIPK1 (aa 1-375) fusion protein
T1 sequence (Q13546 1-375): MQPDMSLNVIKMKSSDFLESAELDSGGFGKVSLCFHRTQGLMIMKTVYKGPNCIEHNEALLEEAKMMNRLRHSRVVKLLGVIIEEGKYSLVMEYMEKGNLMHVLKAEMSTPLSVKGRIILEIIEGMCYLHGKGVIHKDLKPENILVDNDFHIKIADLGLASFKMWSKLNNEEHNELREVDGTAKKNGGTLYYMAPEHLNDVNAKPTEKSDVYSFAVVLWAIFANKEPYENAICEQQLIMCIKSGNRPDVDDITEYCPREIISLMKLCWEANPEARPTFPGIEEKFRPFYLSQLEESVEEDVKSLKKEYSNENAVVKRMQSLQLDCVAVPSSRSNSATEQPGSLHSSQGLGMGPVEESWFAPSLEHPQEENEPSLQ
In short: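 The readout was ADP-Glo luminescence after a 240 min rt autophosphorylation reaction with 50 μM ATP, following 30 min preincubation of 3.6 μg/ml hRIPK1 (aa 1-375) fusion with compound at 33300-1.69 nM final in 1% DMSO. Values came from Levenberg-Marquardt nonlinear fits.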

| Compound | IC50 [2] [nM] | IC50 [1] [nM] |
| --- | --- | --- |
| O=C([C@H]1C[C@@H](n2ccc3cc(F)ccc32)C1)N1OCC[C@H]1c1cc(F)cc(F)c1 [Compound 108, cis-[(3S)-3-(3,5-difluorophenyl)isoxazolidin-2-yl]-[3-(5-fluoroindol-1-yl)cyclobutyl]methanone] | 26 | 94 |
| N#Cc1cc(F)cc([C@@H]2CCON2C(=O)[C@H]2C[C@@H](n3cc4cc(F)ccc4n3)C2)c1 [Compound 109, cis-3-fluoro-5-[(3S)-2-[3-(5-fluoroindazol-2-yl)cyclobutanecarbonyl]isoxazolidin-3-yl]benzonitrile] | 55 | 745 |
| O=C([C@H]1C[C@@H](n2cc3cc(F)ccc3n2)C1)N1OCC[C@H]1c1cc(F)cc(F)c1 [Compound 110, cis-[(3S)-3-(3,5-difluorophenyl)isoxazolidin-2-yl]-[3-(5-fluoroindazol-2-yl)cyclobutyl]methanone] | 62 | 97 |
| NC(=O)c1ccc(F)c(OC[C@H]2CC[C@H](C(=O)N3OCC[C@H]3c3cnccn3)CC2)c1 [Compound 111, trans-4-fluoro-3-[[4-[(3S)-3-pyrazin-2-ylisoxazolidine-2-carbonyl]cyclohexyl]methoxy]benzamide] | 48 | 153 |

More lines, main results first:

| IC50 [2] [nM] | Compound | IC50 [1] [nM] |
| --- | --- | --- |
| 41 | NC(=O)c1cc(F)cc(OC[C@H]2CC[C@H](C(=O)N3OCC[C@H]3c3cnccn3)CC2)c1 [Compound 112, trans-3-fluoro-5-[[4-[(3S)-3-pyrazin-2-ylisoxazolidine-2-carbonyl]cyclohexyl]methoxy]benzamide] | 47 |
| 38 | NC(=O)c1ccc(OC[C@H]2CC[C@H](C(=O)N3OCC[C@H]3c3cnccn3)CC2)c(F)c1 [Compound 113, trans-3-fluoro-4-[[4-[(3S)-3-pyrazin-2-ylisoxazolidine-2-carbonyl]cyclohexyl]methoxy]benzamide] | 97 |
| 11 | COc1cncc([C@@H]2CCON2C(=O)[C@H]2CC[C@H](COc3cccc(C(N)=O)c3)CC2)n1 [Compound 129, trans-3-[[4-[(3S)-3-(6-methoxypyrazin-2-yl)isoxazolidine-2-carbonyl]cyclohexyl]methoxy]benzamide] | 28 |
| 37 | Cc1nc([C@@H]2CCON2C(=O)[C@H]2CC[C@H](COc3cccc(C(N)=O)c3)CC2)cs1 [Compound 130, trans-3-[[4-[(3S)-3-(2-methylthiazol-4-yl)isoxazolidine-2-carbonyl]cyclohexyl]methoxy]benzamide] | 98 |
| 47 | NC(=O)c1cccc(OC[C@H]2CC[C@H](C(=O)N3OCC[C@H]3c3ccccn3)CC2)c1 [Compound 131, trans-3-[[4-[(3S)-3-(2-pyridyl)isoxazolidine-2-carbonyl]cyclohexyl]methoxy]benzamide] | 236 |
